# Experimental data from US20140323500A1, “NADPH OXIDASE 4 INHIBITORS AND USE THEREOF” (GENKYOTEX SA, priority 2011, published 2014).
# Biological target: T1, human Nox4 (Homo sapiens, UniProt Q9NPH5)
# T1 construct: expressed in transfected cells; host or cells: T-REx-293 (hNOX4 T-REx-293), tetracycline-induced; membrane fraction
# T1 sequence (Q9NPH5 1-578): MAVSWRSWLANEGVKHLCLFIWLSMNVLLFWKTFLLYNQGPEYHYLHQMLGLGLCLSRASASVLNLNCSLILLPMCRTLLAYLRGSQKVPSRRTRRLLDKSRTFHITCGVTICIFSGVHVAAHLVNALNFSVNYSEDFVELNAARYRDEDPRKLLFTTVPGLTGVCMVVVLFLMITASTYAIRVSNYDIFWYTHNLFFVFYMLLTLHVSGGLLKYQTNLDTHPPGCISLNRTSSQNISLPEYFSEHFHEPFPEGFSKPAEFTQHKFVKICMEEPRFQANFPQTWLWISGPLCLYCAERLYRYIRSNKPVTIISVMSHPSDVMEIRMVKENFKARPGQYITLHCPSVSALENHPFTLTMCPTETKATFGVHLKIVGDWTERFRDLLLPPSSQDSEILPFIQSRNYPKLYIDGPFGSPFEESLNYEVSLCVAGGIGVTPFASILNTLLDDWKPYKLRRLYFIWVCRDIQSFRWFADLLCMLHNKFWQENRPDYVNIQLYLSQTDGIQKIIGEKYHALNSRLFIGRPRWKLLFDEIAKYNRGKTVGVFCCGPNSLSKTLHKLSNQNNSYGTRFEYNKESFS
# T1 sequence (P13498 2-195 partner limits assumed): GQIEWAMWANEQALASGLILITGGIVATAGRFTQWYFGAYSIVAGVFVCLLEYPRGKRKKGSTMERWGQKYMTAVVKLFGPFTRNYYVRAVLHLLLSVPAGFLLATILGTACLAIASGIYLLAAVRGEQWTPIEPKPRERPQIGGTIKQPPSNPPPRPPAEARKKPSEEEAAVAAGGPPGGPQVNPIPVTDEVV
# Experiment: ROS production by membranes expressing human Nox4, cell-free Amplex Red assay
# Type: biochemical
# Details: cell-free membranes, Amplex Red; Cheng-Prusoff; average of at least three experiments in triplicate; read-out: Ki hNox4
# Source text: (§1) The Nox4 activity of Nox4 inhibitors according to the invention may be tested for their activity in the inhibition or reduction of formation of reactive oxygen species (ROS) from oxygen in cell free assays. In order to fully characterise Nox4 inhibitors, Nox subunit-specific cell-free, membrane-based systems have been developed and specific recombinant proteins have been added to membranes heterologously over-expressing their specific iso form. Nox enzymes produce superoxide (O2.−) as primary product, however due to the high instability and reactivity of this molecule which dismutates naturally into hydrogen peroxide (H2O2), therefore, read-out techniques involving probes that do measure H2O2 were used (e.g. using Amplex Red as a probe in order to facilitate consistent and accurate measurements). The activity of the compounds is tested in the following cell free assay using the techniques described here below:
# Transfected T-REx™-CHO cells (R718-07) purchased from Invitrogen and T-REx™-293 cell line expressing hNOX4 (hNOX4 T-REx™-293) (Serrander et al., 2007, Biochem. J., 406, 105-114) were cultured in […]. Both media were supplemented with 10% FBS, 2 mM glutamine, penicillin (100 U/ml) and streptomycin (100 μg/ml). Selection pressure was maintained by continuous inclusion of blasticidin (5 μg/ml), and/or G418 (0.25 mg/ml), and/or Hygromycin (0.25 mg/ml) and/or zeocin (0.025 mg/ml).
# (§2) Human Nox1, Nox2, Nox4, and Nox5 expression were induced with Tetracycline (1 μg/ml) during 24 h prior to the membrane preparation Membranes from transfected cells overexpressing Nox1, Nox2, Nox4 or Nox5 were prepared as previously described in Palicz et al., 2001, J. Biol. Chem., 76, 3090-3097. After resuspension in sonication buffer (11% sucrose, 120 mM NaCl, 1 mM EGTA in PBS, pH 7.4 for Nox4- or NOX5-expressing cells) or in relax buffer (10 mM Pipes, 3 mM NaCl, 3.5 mM MgCl2, 0.1M KCl, pH 7.4), cells were broken by sonication and centrifuged (200 g, 10 min). The supernatant was layered onto a 17/40% (w/v) discontinuous sucrose gradient and centrifuged (150,000×g for 60 min). Membrane fractions were collected from the 17/40% interface and were stored at −80° C. Protein concentration was determined with the Bradford reagent.
# (§3) Reactive Oxygen Species (ROS) production by membranes expressing either human Nox1, or human Nox2 or human Nox4 or human Nox5 or by xanthine/xanthine oxidase were measured using the Amplex Red (AR) method following a slightly modified version of the manufacturer's instruction manual (Invitrogen). Briefly, membranes or xanthine were incubated in PBS with Amplex Red, Horse Radish Peroxidase (HRP) and appropriated co-factors. ROS production was induced by addition of NADPH to NOX-expressing membrane or by addition of xanthine to xanthine oxidase. Non-specific signal was measured in the absence of membranes or in the absence of xanthine.
# Antagonist activity of compounds was measured in the presence of increasing concentrations ranging from 1 nM to 100 μM. After an incubation of 20 min in a plate shaker and incubator (Titramax 1000, VWR) at 37° C. with weak agitation (300 rpm), ROS levels were measured for 10 min in a BMG Fluostar microplate reader with excitation and emission wavelengths of 544 nm and 590 nm respectively.
# Data were analysed using Prism (GraphPad Software Inc., San Diego, Calif.). Ki values were calculated using the Cheng-Prusoff equation and represent the average of at least three individual experiments performed in triplicate (Table 1). Nox4 inhibition was compared to that measured for Simvastatin (Enzo Life Sciences, CAS Number 79902-63-9) using the method described in Example 1. Reactive Oxygen Species (ROS) production by membranes expressing human Nox4 was measured using the Amplex Red (AR).
row,Ki [nM],SMILES
1,48,"COc1ccc(-c2c3c(=O)n(-c4ccccc4Cl)[nH]c3cc(=O)n2Cc2cnccn2)cc1 [(2), 2-(2-chlorophenyl)-4-(4-methoxyphenyl)-5-(pyrazin-2-ylmethyl)-1H-pyrazolo[4,3-c]pyridine-3,6(2H,5H)-dione]"
2,57,"COc1ccccc1-n1[nH]c2cc(=O)n(Cc3cnccn3)c(-c3ccc(Cl)cc3)c2c1=O [(3), 4-(4-chlorophenyl)-2-(2-methoxyphenyl)-5-(pyrazin-2-ylmethyl)-1H-pyrazolo[4,3-c]pyridine-3,6(2H,5H)-dione]"
3,79,"O=c1c2c(-c3cc(Cl)ccc3F)n(Cc3ccncc3)c(=O)cc2[nH]n1-c1ccccc1Cl [(12), 4-(5-chloro-2-fluorophenyl)-2-(2-chlorophenyl)-5-(pyridin-4-ylmethyl)-1H-pyrazolo[4,3-c]pyridine-3,6(2H,5H)-dione]"
4,94,"COc1cccc(-c2c3c(=O)n(-c4ccccc4OC)[nH]c3cc(=O)n2Cc2ccn(C)n2)c1 [(20), 2-(2-methoxyphenyl)-4-(3-methoxyphenyl)-5-[(1-methyl-1H-pyrazol-3-yl)methyl]-1H-pyrazolo[4,3-c]pyridine-3,6(2H,5H)-dione]"
5,98,"COc1ccc(-c2c3c(=O)n(-c4ccccc4OC)[nH]c3cc(=O)n2Cc2ccn(C)n2)cc1 [(23), 2-(2-methoxyphenyl)-4-(4-methoxyphenyl)-5-[(1-methyl-1H-pyrazol-3-yl)methyl]-1H-pyrazolo[4,3-c]pyridine-3,6(2H,5H)-dione]"
6,99,"COc1cccc(-c2c3c(=O)n(-c4ccccc4OC)[nH]c3cc(=O)n2Cc2cccnc2)c1 [(24), 2-(2-methoxyphenyl)-4-(3-methoxyphenyl)-5-(pyridin-3-ylmethyl)-1H-pyrazolo[4,3-c]pyridine-3,6(2H,5H)-dione]"
7,109,"O=c1c2c(-c3c(F)cccc3F)n(Cc3ccncc3)c(=O)cc2[nH]n1-c1ccccc1Cl [(28), 2-(2-chlorophenyl)-4-(2,6-difluorophenyl)-5-(pyridin-4-ylmethyl)-1H-pyrazolo[4,3-c]pyridine-3,6(2H,5H)-dione]"
8,112,"O=c1c2c(-c3cccc(Cl)c3F)n(Cc3ccncc3)c(=O)cc2[nH]n1-c1ccccc1Cl [(31), 4-(3-chloro-2-fluorophenyl)-2-(2-chlorophenyl)-5-(pyridin-4-ylmethyl)-1H-pyrazolo[4,3-c]pyridine-3,6(2H,5H)-dione]"
9,115,"COc1ccc(-c2c3c(=O)n(-c4ccccc4OC)[nH]c3cc(=O)n2Cc2cccnc2)cc1 [(33), 2-(2-methoxyphenyl)-4-(4-methoxyphenyl)-5-(pyridin-3-ylmethyl)-1H-pyrazolo[4,3-c]pyridine-3,6(2H,5H)-dione]"
10,129,"O=c1c2c(-c3cccc(Cl)c3F)n(Cc3cccnc3)c(=O)cc2[nH]n1-c1ccccc1Cl [(38), 4-(3-chloro-2-fluorophenyl)-2-(2-chlorophenyl)-5-(pyridin-3-ylmethyl)-1H-pyrazolo[4,3-c]pyridine-3,6(2H,5H)-dione]"
11,148,"O=c1c2c(-c3c(F)cccc3F)n(Cc3cccnc3)c(=O)cc2[nH]n1-c1ccccc1Cl [(40), 2-(2-chlorophenyl)-4-(2,6-difluorophenyl)-5-(pyridin-3-ylmethyl)-1H-pyrazolo[4,3-c]pyridine-3,6(2H,5H)-dione]"
12,148,"COc1ccc(F)c(-c2c3c(=O)n(-c4ccccc4OC)[nH]c3cc(=O)n2Cc2cnccn2)c1 [(41), 4-(2-fluoro-5-methoxyphenyl)-2-(2-methoxyphenyl)-5-(pyrazin-2-ylmethyl)-1H-pyrazolo[4,3-c]pyridine-3,6(2H,5H)-dione]"
13,126,"CN(C)c1cccc(-c2c3c(=O)n(-c4ccccc4Cl)[nH]c3cc(=O)n2Cc2ccn(C)n2)c1 [(43), 2-(2-chlorophenyl)-4-[3-(dimethylamino)phenyl]-5-[(1-methyl-1H-pyrazol-3-yl)methyl]-1H-pyrazolo[4,3-c]pyridine-3,6(2H,5H)-dione]"

# Biological target: T2, human Nox2 (Homo sapiens, UniProt P04839)
# T2 construct: host or cells: T-REx-CHO (hNOX2 T-REx-CHO), tetracycline-induced; membrane fraction
# T2 sequence (P04839 2-570 limits assumed): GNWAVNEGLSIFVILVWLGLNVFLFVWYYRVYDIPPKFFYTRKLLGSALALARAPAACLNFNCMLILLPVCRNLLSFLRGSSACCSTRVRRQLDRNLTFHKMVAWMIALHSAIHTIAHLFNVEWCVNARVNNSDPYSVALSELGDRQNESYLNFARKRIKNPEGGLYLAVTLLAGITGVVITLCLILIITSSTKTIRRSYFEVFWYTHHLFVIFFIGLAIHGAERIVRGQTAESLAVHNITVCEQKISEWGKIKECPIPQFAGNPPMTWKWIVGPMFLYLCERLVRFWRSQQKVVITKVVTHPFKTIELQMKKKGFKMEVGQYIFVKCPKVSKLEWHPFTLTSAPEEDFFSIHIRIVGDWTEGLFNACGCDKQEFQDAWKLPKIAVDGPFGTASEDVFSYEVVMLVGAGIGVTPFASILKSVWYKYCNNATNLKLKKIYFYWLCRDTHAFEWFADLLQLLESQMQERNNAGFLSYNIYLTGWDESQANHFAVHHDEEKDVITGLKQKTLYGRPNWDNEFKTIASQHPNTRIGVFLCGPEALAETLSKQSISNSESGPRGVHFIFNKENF
# T2 sequence (P13498 2-195 partner limits assumed): T1 sequence (P13498 2-195 partner limits assumed)
# Experiment: ROS production by membranes expressing human Nox2, cell-free Amplex Red assay
# Type: biochemical
# Details: cell-free membranes, Amplex Red; Cheng-Prusoff; average of at least three experiments in triplicate; read-out: Ki hNox2
# Source text: as §1
# Human Nox1 (NM_007052.4), human NOX2 (NM_000397), and human NOX5 (NM_0245052244) cDNAs were cloned into the pcDNA5/TO (Invitrogen). Human p22 (NM_000101.2) was cloned into pcDNA3.1/Zeo (+) (Invitrogen), and human NOXA1 (AY255769.1) and human NOXO1 (AB097667) were cloned into the bi-cistronic pVITRO1-neo-mcs plasmid (Invivogen).
# Cells were transfected by using the FuGENE 6 method. Cells stably expressing functional human Nox1 (hNOX1 T-REx™-CHO) were obtained by co-transfecting T-REx™-CHO cells with human Nox1, human p22, human NOXA1 and human NOXO1. Cells stably expressing functional human Nox2 (hNOX2 T-REx™-CHO) were obtained by co-transfecting T-REx™-CHO cells with human nox2, human p22 and human cofactors. Cells stably expressing functional human Nox5 (hNOX5 T-REx™-CHO) were obtained by transfecting T-REx™-CHO cells with human Nox5. Co-transfected cells were selected with the appropriate antibiotics for 10 days. For the selection, hygromycin and G418 were used at 2 mg/ml and zeocin at 0.1 mg/ml. For the establishment of each stably transfected cell line, a pool of antibiotic-resistant cells was generated. Cells were cloned by limiting dilution. Several clones were established and investigated for ROS production upon tetracycline-induced hNox expression using a cellular AR assay. The expression of NOXes was done with tetracycline (1 μg/ml) during 24 h prior to the assay.
# as §2, §3
# Antagonist activity of compounds was measured in the presence of increasing concentrations ranging from 1 nM to 100 μM. […]
row,Ki [nM],SMILES
1,670,"COc1ccc(-c2c3c(=O)n(-c4ccccc4Cl)[nH]c3cc(=O)n2Cc2cnccn2)cc1 [(2), 2-(2-chlorophenyl)-4-(4-methoxyphenyl)-5-(pyrazin-2-ylmethyl)-1H-pyrazolo[4,3-c]pyridine-3,6(2H,5H)-dione]"
2,735,"COc1ccccc1-n1[nH]c2cc(=O)n(Cc3cnccn3)c(-c3ccc(Cl)cc3)c2c1=O [(3), 4-(4-chlorophenyl)-2-(2-methoxyphenyl)-5-(pyrazin-2-ylmethyl)-1H-pyrazolo[4,3-c]pyridine-3,6(2H,5H)-dione]"
